Like-named read-outs stand apart in the source and are kept apart here. Ends that are not written are not given here. Peptide text beside a SMILES is read from it.
Columns and labels:
pancreatic lipase [1] = biological target: T1, pancreatic lipase (Sus scrofa, UniProt P00591); assay: Inhibitory kinetic analysis of pancreatic lipase (Lineweaver-Burk); type: biochemical; conditions: sample 1 mg/mL, pNPB 1-5 mM; read-out: inhibitory binding constant (Ki), pancreatic lipase
T1 construct: purchased Sigma Co., St. Louis, Missouri, United States
T1 sequence (P00591 1-450): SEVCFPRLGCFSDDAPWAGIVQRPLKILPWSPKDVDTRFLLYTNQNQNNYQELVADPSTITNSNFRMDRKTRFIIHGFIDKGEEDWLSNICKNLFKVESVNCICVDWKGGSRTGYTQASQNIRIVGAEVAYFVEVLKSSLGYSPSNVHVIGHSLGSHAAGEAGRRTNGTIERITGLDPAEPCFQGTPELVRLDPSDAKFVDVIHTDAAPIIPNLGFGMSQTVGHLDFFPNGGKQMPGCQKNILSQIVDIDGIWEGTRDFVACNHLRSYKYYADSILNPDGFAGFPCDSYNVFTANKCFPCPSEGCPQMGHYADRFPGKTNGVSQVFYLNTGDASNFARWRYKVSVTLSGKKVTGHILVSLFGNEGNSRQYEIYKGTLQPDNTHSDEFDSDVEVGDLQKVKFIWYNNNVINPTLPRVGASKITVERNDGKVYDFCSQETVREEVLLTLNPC
Procedure: (§1) The inhibition kinetics of oligopeptides GLLGY, HWP, and VYGF on ACE and pancreatic lipase were tested to determine their efficiencies. For the ACE inhibition test, the concentration of the samples GLLGY, HWP, and VYGF was 1 mg/mL, and the concentrations of the substrate FAPGG were 0.2, 0.4, 0.6, 0.8, and 1 mM. For the pancreatic lipase inhibition test, the sample HWP concentration was 1 mg/mL and the substrate pNPB concentrations were 1, 2, 3, and 5 mM. The initial velocity data were used to construct the Lineweaver–Burke plots to determine the enzyme Km (Michaelis constant), Vmax (maximum velocity), and Ki (inhibitory binding constant) ([8], [22]).

ACE [2] = biological target: T2, ACE (Homo sapiens, UniProt P12821); assay: Inhibitory kinetic analysis of ACE (Lineweaver-Burk); type: biochemical; conditions: sample 1 mg/mL, FAPGG 0.2-1 mM; read-out: inhibitory binding constant (Ki), ACE
T2 construct: purchased Sigma Co., St. Louis, Missouri, United States
T2 sequence (P12821 30-1306): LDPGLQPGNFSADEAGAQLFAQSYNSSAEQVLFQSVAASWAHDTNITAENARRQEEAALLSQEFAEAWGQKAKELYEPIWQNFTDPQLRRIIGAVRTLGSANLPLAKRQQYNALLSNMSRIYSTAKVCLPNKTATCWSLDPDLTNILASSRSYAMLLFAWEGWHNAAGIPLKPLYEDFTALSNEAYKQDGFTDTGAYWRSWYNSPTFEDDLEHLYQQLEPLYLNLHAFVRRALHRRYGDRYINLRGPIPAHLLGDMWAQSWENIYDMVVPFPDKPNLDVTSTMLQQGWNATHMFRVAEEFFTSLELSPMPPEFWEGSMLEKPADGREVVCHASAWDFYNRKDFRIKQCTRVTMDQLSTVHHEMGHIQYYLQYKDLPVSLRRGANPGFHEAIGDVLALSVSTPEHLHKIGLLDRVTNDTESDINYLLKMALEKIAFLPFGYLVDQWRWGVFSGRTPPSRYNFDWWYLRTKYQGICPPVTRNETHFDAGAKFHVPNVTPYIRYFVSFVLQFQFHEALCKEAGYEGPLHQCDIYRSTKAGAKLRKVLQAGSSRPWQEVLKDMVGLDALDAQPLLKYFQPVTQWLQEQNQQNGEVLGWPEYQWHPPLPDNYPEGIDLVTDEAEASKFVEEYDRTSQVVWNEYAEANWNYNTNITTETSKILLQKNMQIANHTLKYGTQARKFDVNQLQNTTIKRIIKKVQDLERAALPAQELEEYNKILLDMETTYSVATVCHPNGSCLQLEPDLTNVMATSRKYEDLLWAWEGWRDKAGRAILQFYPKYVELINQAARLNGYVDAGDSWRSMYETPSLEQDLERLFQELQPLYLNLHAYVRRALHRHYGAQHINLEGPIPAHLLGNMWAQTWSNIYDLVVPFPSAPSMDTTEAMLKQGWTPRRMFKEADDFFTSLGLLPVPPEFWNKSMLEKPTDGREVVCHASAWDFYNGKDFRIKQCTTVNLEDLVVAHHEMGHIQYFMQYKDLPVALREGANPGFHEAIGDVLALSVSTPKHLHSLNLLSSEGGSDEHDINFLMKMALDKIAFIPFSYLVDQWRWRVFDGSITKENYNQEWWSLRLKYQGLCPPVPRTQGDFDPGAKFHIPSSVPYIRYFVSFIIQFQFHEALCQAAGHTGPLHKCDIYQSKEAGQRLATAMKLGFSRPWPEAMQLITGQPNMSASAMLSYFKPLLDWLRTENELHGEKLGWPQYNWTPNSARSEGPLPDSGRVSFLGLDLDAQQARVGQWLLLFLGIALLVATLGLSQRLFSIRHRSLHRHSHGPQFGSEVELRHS
Procedure: as §1

pancreatic lipase [3] = biological target: T1, pancreatic lipase; assay: Pancreatic lipase inhibitory activity of peptides (pNPB substrate, absorbance 405 nm); type: biochemical
Procedure: (§2) The polypeptide was synthesized by Hangzhou Dangang Biotechnology Co., Ltd (Hangzhou, China). Human ACE, N-[3-(2-furanyl) acryloyl]-l-phenylalanyl glycyl glycine (FAPGG), p-nitrophenyl butyrate (pNPB), and pancreatic lipase were purchased from Sigma Co., St. Louis, Missouri, United States.
(§3) According to the method of Magdalena mendoza-s á nchez ([1]). In the blank group, 100 μL of 0.1 M sodium phosphate buffer (pH 7.2), 50 μL pNPB (5 mM), and 50 μL pancreatic lipase (0.2 U/mL) were added to a 96-well plate. In the blank control group, 150 μL sodium phosphate buffer and 50 μL pNPB were added to the 96-well plate. In the sample group, 50 μL sodium phosphate buffer, 50 μL pNPB, 50 μL sample (1 mg/mL), and 50 μL pancreatic lipase were added to the 96-well plate. For the sample blank group, 100 μL sodium phosphate buffer, 50 μL pNPB, and 50 μL sample were added to the 96-well plate. At 37°C, the absorbance values A, B, C, and D were measured at 405 nm after 30 min of reaction. The absorbance values were incorporated into the following formula to calculate the inhibition rate of polypeptide against pancreatic lipase activity:
(2) Pancreaticlipaseinhibitionrate (%)=(1-C-D/A-B)×100
Where A, B, C, and D are absorbance values of the blank, blank control, sample, and sample blank groups, respectively.

ACE [4] = biological target: T2, ACE; assay: ACE inhibitory activity of peptides (FAPGG substrate, absorbance 340 nm); type: biochemical
Procedure: as §2
(§4) According to the experimental method of Yu Fu et al. ([8]), with slight changes, 50 μL ACE (0.1 U/mL, prepared from borate buffer with pH 8.3 and 80 mM), 50 μL FAPGG (1 mM), and 100 μL borate buffer (80 mM, pH 8.3) were added to a 96-well plate. Then, 100 μL borate buffer was replaced with 1 mg/mL sample, which are three groups of parallel samples, and the initial absorbance values a1 and b1 were measured at 340 nm. Then, the plate was placed at 37°C and reacted for 30 min. The absorbance values a2 and b2 were measured at 340 nm (Multiskan GO, Thermo Scientific, Waltham, MA, USA). The absorbance value was incorporated into the following formula to calculate the inhibition rate of polypeptide against ACE activity:
(1) ACEinhibitionrate (%)=(A-B)/A×100
Where a1 and b1 are initial absorbance values of the blank and sample groups, respectively. a2 and b2 are absorbance values of the blank and sample groups after the reaction, respectively. A = a1–a2; B = b1–b2.

ACE [5] = biological target: T2, ACE; assay: In vitro simulated gastrointestinal digestion, then ACE inhibition; type: biochemical; conditions: 1 mg/mL, read-out: inhibition rate against ACE
Procedure: as §4
(§5) Simulated GI digestion through an in vitro pepsin–pancreatin hydrolysis method was carried out ([23]). The oligopeptides GLLGY, HWP, and VYGF were re-dissolved (3% w/v in distilled water) and adjusted to pH 2.0 with 1 M HCl. Then, pepsin (4% weight as received/weight of protein in the powder) was added. The mixture was incubated at 37°C for 2 h. The pH was then adjusted to 5.3 with 0.9 M NaHCO3 solution and further to pH 7.5 with 1 M NaOH. Pancreatin was added (4% weight as received/weight of protein in the powder), and the mixture was further incubated at 37°C for 2 h. To terminate the digestion, the test tubes were kept in boiling water for 10 min. The gastric digests (GDs) and gastric-intestinal digests (GIDs) were obtained through centrifugation (8000 × g, 10 min, 4°C), and then, the supernatants were collected, lyophilized, sealed in plastic bags, and stored at 4°C until further analysis. The ACE and pancreatic lipase inhibitory activities of GDS and GID were measured at a concentration of 1 mg/mL, and the results were expressed as activity (%) relative to that without any treatment (control group, 100%). All determinations were made in triplicate.

pancreatic lipase [6] = biological target: T1, pancreatic lipase; assay: In vitro simulated gastrointestinal digestion, then pancreatic lipase inhibition; type: biochemical; conditions: 1 mg/mL, read-out: inhibition rate against pancreatic lipase
Procedure: as §3, §5

pancreatic lipase [7] = biological target: T1, pancreatic lipase; conditions: cited from earlier work

Compound: N[C@@H](Cc1c[nH]cn1)C(=O)N[C@@H](Cc1c[nH]c2ccccc12)C(=O)N1CCC[C@H]1C(=O)O [HWP] (H-His-Trp-Pro-OH)
- Ki (pancreatic lipase [1]): 2580 µM
- Ki (ACE [2]): 1340 µM
- inhibition at 1000 µg/mL (pancreatic lipase [3]; at 1 mg/mL, read-out: pancreatic lipase inhibition rate): 20%
- IC50 (pancreatic lipase [3]; gradient test of concentration, Figure 1C): 9010 µM
- IC50 (ACE [4]): 2280 µM
- inhibition at 1000 µg/mL (ACE [5]; after GI digestion): 53.6%
- inhibition at 1000 µg/mL (ACE [5]; after gastric digestion): 54.4%
- inhibition at 1000 µg/mL (ACE [5]; without GI digestion): 57%
- inhibition at 1000 µg/mL (pancreatic lipase [6]; after GI digestion): 18.4%
- inhibition at 1000 µg/mL (pancreatic lipase [6]; after gastric digestion): 19.9%
- inhibition at 1000 µg/mL (pancreatic lipase [6]; without GI digestion): 21.5%

Compound: O=c1cc(-c2ccc(O)cc2)oc2cc(O)cc(O)c12 [apigenin]
- IC50 (pancreatic lipase [7]): 450 ± 30 µM
- type of pancreatic lipase inhibition (pancreatic lipase [7]): competitively inhibited

Compound: CC(C)[C@H](N)C(=O)N[C@@H](Cc1ccc(O)cc1)C(=O)NCC(=O)N[C@@H](Cc1ccccc1)C(=O)O [VYGF] (H-VYGF-OH)
- Ki (ACE [2]): 933 µM
- IC50 (ACE [4]): 2060 µM
- inhibition at 1000 µg/mL (ACE [5]; after GI digestion): 49.1%
- inhibition at 1000 µg/mL (ACE [5]; after gastric digestion): 50.9%
- inhibition at 1000 µg/mL (ACE [5]; without GI digestion): 54.8%

Compound: Leu-Pro
- pancreatic lipase inhibitory activity (pancreatic lipase [7]; peptide of bovine and camel casein hydrolysates): exhibits pancreatic lipase inhibitory activity

Compound: VSTDVNIE [cocoa peptide]
- inhibitory effect on pancreatic lipase (pancreatic lipase [7]; cocoa peptides): had inhibitory effect

Compound: GLLGY [GLLGY]
- Ki (ACE [2]): 1570 µM
- IC50 (ACE [4]): 1920 µM
- inhibition at 1000 µg/mL (ACE [5]; after GI digestion): 51.3%
- inhibition at 1000 µg/mL (ACE [5]; after gastric digestion): 52.6%
- inhibition at 1000 µg/mL (ACE [5]; without GI digestion): 55.8%

From publication PMC9520749, “Novel angiotensin-converting enzyme and pancreatic lipase oligopeptide inhibitors from fermented rice bran” (Frontiers in Nutrition, 2022)
